Measured values from publication PMC5074247 (Biopharmaceutics & Drug Disposition, 2016).
Read-outs that look alike come from different tables or passages of the source.

Experiments:
[1] = Tissue distribution of radioactivity in SD rats; type: in vivo, Sprague–Dawley rats; details: oral 1 mg/kg
[2] = type: in vivo, Sprague–Dawley rats; details: all time‐points measured; oral 1 mg/kg [^14C]teneligliptin; SD rats
[3] = Volume of distribution at steady state after intravenous administration to rats; type: in vivo; details: rat, plasma
[4] = Whole‐body autoradiography of SD rats; type: in vivo, Sprague–Dawley rats; details: 168 h, oral 1 mg/kg, SD rat
[5] = cited from earlier work
[6] = SHRcp model ref 40; cited from earlier work

- Concentration of radioactivity ([1]; Adrenal, 0.5 h): 1221.7 ± 289.0 ng eq/ml or g
- Concentration of radioactivity ([1]; Adrenal, 5 h): 323.7 ± 90.7 ng eq/ml or g
- Concentration of radioactivity ([1]; Adrenal, 12 h): 177.0 ± 22.7 ng eq/ml or g
- Concentration of radioactivity ([1]; Adrenal, 24 h): 100.4 ± 8.8 ng eq/ml or g
- Concentration of radioactivity ([1]; Adrenal, 72 h): 20.5 ± 4.3 (N.C.) ng eq/ml or g
- Concentration of radioactivity ([1]; Adrenal, 168 h): 6.5 ± 4.5 (N.C.) ng eq/ml or g
- Concentration of radioactivity ([1]; Aorta, 0.5 h): 488.7 ± 78.4 ng eq/ml or g
- Concentration of radioactivity ([1]; Aorta, 5 h): 99.0 ± 46.0 ng eq/ml or g
- Concentration of radioactivity ([1]; Aorta, 12 h): 35.7 ± 16.7 ng eq/ml or g
- Concentration of radioactivity ([1]; Aorta, 24 h): 15.4 ± 5.2 ng eq/ml or g
- Concentration of radioactivity ([1]; Bone, 0.5 h): 118.7 ± 22.2 ng eq/ml or g
- Concentration of radioactivity ([1]; Bone, 5 h): 52.3 ± 19.9 ng eq/ml or g
- Concentration of radioactivity ([1]; Bone, 12 h): 23.8 ± 7.5 ng eq/ml or g
- Concentration of radioactivity ([1]; Epididymis, 0.5 h): 232.5 ± 61.7 ng eq/ml or g
- Concentration of radioactivity ([1]; Epididymis, 5 h): 352.5 ± 76.0 ng eq/ml or g
- Concentration of radioactivity ([1]; Epididymis, 12 h): 259.9 ± 44.4 ng eq/ml or g
- Concentration of radioactivity ([1]; Epididymis, 24 h): 167.6 ± 35.4 ng eq/ml or g
- Concentration of radioactivity ([1]; Epididymis, 72 h): 44.9 ± 3.8 (N.C.) ng eq/ml or g
- Concentration of radioactivity ([1]; Epididymis, 168 h): 11.2 ± 3.3 (N.C.) ng eq/ml or g
- Concentration of radioactivity ([1]; Heart, 0.5 h): 454.0 ± 85.0 ng eq/ml or g
- Concentration of radioactivity ([1]; Heart, 5 h): 118.7 ± 34.6 ng eq/ml or g
- Concentration of radioactivity ([1]; Heart, 12 h): 56.6 ± 8.9 ng eq/ml or g
- Concentration of radioactivity ([1]; Heart, 24 h): 30.6 ± 2.7 ng eq/ml or g
- Concentration of radioactivity ([1]; Heart, 72 h): 6.3 ± 1.1 (N.C.) ng eq/ml or g
- Concentration of radioactivity ([1]; Kidney, 0.5 h): 4568.2 ± 609.1 ng eq/ml or g
- Concentration of radioactivity ([1]; Kidney, 5 h): 3292.8 ± 76.8 ng eq/ml or g
- Concentration of radioactivity ([1]; Kidney, 12 h): 2872.1 ± 419.4 ng eq/ml or g
- Concentration of radioactivity ([1]; Kidney, 24 h): 2637.8 ± 410.3 ng eq/ml or g
- Concentration of radioactivity ([1]; Kidney, 72 h): 1548.5 ± 192.3 (N.C.) ng eq/ml or g
- Concentration of radioactivity ([1]; Kidney, 168 h): 606.1 ± 203.2 (N.C.) ng eq/ml or g
- Concentration of radioactivity ([1]; Liver, 0.5 h): 4686.7 ± 932.3 ng eq/ml or g
- Concentration of radioactivity ([1]; Liver, 5 h): 1753.2 ± 130.4 ng eq/ml or g
- Concentration of radioactivity ([1]; Liver, 12 h): 814.1 ± 68.7 ng eq/ml or g
- Concentration of radioactivity ([1]; Liver, 24 h): 389.5 ± 49.5 ng eq/ml or g
- Concentration of radioactivity ([1]; Liver, 72 h): 250.2 ± 21.8 (N.C.) ng eq/ml or g
- Concentration of radioactivity ([1]; Liver, 168 h): 92.4 ± 17.2 (N.C.) ng eq/ml or g
- Concentration of radioactivity ([1]; Lung, 0.5 h): 1938.4 ± 456.7 ng eq/ml or g
- Concentration of radioactivity ([1]; Lung, 5 h): 714.7 ± 116.7 ng eq/ml or g
- Concentration of radioactivity ([1]; Lung, 12 h): 500.7 ± 40.2 ng eq/ml or g
- Concentration of radioactivity ([1]; Lung, 24 h): 323.6 ± 46.7 ng eq/ml or g
- Concentration of radioactivity ([1]; Lung, 72 h): 71.3 ± 12.9 (N.C.) ng eq/ml or g
- Concentration of radioactivity ([1]; Lung, 168 h): 16.9 ± 5.9 (N.C.) ng eq/ml or g
- Concentration of radioactivity ([1]; Pancreas, 0.5 h): 1253.9 ± 341.0 ng eq/ml or g
- Concentration of radioactivity ([1]; Pancreas, 5 h): 298.9 ± 83.1 ng eq/ml or g
- Concentration of radioactivity ([1]; Pancreas, 12 h): 107.8 ± 22.6 ng eq/ml or g
- Concentration of radioactivity ([1]; Pancreas, 24 h): 50.8 ± 1.2 ng eq/ml or g
- Concentration of radioactivity ([1]; Pancreas, 72 h): 8.3 ± 1.8 (N.C.) ng eq/ml or g
- Concentration of radioactivity ([1]; Pancreas, 168 h): 3.4 ± 0.9 (N.C.) ng eq/ml or g
- Concentration of radioactivity ([1]; Prostate, 0.5 h): 478.6 ± 167.1 ng eq/ml or g
- Concentration of radioactivity ([1]; Prostate, 5 h): 169.0 ± 53.9 ng eq/ml or g
- Concentration of radioactivity ([1]; Prostate, 12 h): 76.7 ± 18.8 ng eq/ml or g
- Concentration of radioactivity ([1]; Prostate, 24 h): 38.6 ± 3.3 ng eq/ml or g
- Concentration of radioactivity ([1]; Prostate, 72 h): 6.1 ± 1.3 (N.C.) ng eq/ml or g
- Concentration of radioactivity ([1]; Prostate, 168 h): 2.2 ± 0.6 (N.C.) ng eq/ml or g
- Concentration of radioactivity ([1]; Seminal vesicle, 0.5 h): 329.0 ± 105.4 ng eq/ml or g
- Concentration of radioactivity ([1]; Seminal vesicle, 5 h): 133.8 ± 57.4 ng eq/ml or g
- Concentration of radioactivity ([1]; Seminal vesicle, 12 h): 51.0 ± 6.3 ng eq/ml or g
- Concentration of radioactivity ([1]; Seminal vesicle, 24 h): 18.7 ± 4.4 ng eq/ml or g
- Concentration of radioactivity ([1]; Seminal vesicle, 72 h): 1.7 ± 2.0 (N.C.) ng eq/ml or g
- Concentration of radioactivity ([1]; Skeletal muscle, 0.5 h): 242.5 ± 66.9 ng eq/ml or g
- Concentration of radioactivity ([1]; Skeletal muscle, 5 h): 46.7 ± 20.1 ng eq/ml or g
- Concentration of radioactivity ([1]; Skeletal muscle, 12 h): 16.7 ± 2.4 ng eq/ml or g
- Concentration of radioactivity ([1]; Skeletal muscle, 24 h): 7.9 ± 1.1 ng eq/ml or g
- Concentration of radioactivity ([1]; Skin, 0.5 h): 366.3 ± 77.9 ng eq/ml or g
- Concentration of radioactivity ([1]; Skin, 5 h): 199.1 ± 47.5 ng eq/ml or g
- Concentration of radioactivity ([1]; Skin, 12 h): 99.2 ± 14.6 ng eq/ml or g
- Concentration of radioactivity ([1]; Skin, 24 h): 55.2 ± 2.9 ng eq/ml or g
- Concentration of radioactivity ([1]; Skin, 72 h): 18.9 ± 1.6 (N.C.) ng eq/ml or g
- Concentration of radioactivity ([1]; Skin, 168 h): 9.3 ± 3.3 (N.C.) ng eq/ml or g
- Concentration of radioactivity ([1]; Spinal cord, 0.5 h): 28.2 ± 7.8 ng eq/ml or g
- Concentration of radioactivity ([1]; Spinal cord, 5 h): 11.4 ± 5.8 ng eq/ml or g
- Concentration of radioactivity ([1]; Spinal cord, 12 h): 4.9 ± 2.4 ng eq/ml or g
- Concentration of radioactivity ([1]; Spinal cord, 24 h): 1.6 ± 1.1 ng eq/ml or g
- Concentration of radioactivity ([1]; Spleen, 0.5 h): 1377.2 ± 292.1 ng eq/ml or g
- Concentration of radioactivity ([1]; Spleen, 5 h): 510.7 ± 68.2 ng eq/ml or g
- Concentration of radioactivity ([1]; Spleen, 12 h): 312.9 ± 31.8 ng eq/ml or g
- Concentration of radioactivity ([1]; Spleen, 24 h): 217.7 ± 21.3 ng eq/ml or g
- Concentration of radioactivity ([1]; Spleen, 72 h): 62.4 ± 7.3 (N.C.) ng eq/ml or g
- Concentration of radioactivity ([1]; Spleen, 168 h): 17.0 ± 4.3 (N.C.) ng eq/ml or g
- Concentration of radioactivity ([1]; Submaxillary gland, 0.5 h): 1009.9 ± 265.5 ng eq/ml or g
- Concentration of radioactivity ([1]; Submaxillary gland, 5 h): 309.9 ± 62.2 ng eq/ml or g
- Concentration of radioactivity ([1]; Submaxillary gland, 12 h): 123.7 ± 24.6 ng eq/ml or g
- Concentration of radioactivity ([1]; Submaxillary gland, 24 h): 78.5 ± 12.3 ng eq/ml or g
- Concentration of radioactivity ([1]; Submaxillary gland, 72 h): 18.0 ± 5.0 (N.C.) ng eq/ml or g
- Concentration of radioactivity ([1]; Submaxillary gland, 168 h): 6.9 ± 2.5 (N.C.) ng eq/ml or g
- Concentration of radioactivity ([1]; Testis, 0.5 h): 68.5 ± 21.6 ng eq/ml or g
- Concentration of radioactivity ([1]; Testis, 5 h): 128.2 ± 41.8 ng eq/ml or g
- Concentration of radioactivity ([1]; Testis, 12 h): 49.6 ± 10.4 ng eq/ml or g
- Concentration of radioactivity ([1]; Testis, 24 h): 18.7 ± 2.4 ng eq/ml or g
- Concentration of radioactivity ([1]; Testis, 72 h): 8.3 ± 10.2 (N.C.) ng eq/ml or g
- Concentration of radioactivity ([1]; Thymus, 0.5 h): 538.8 ± 138.4 ng eq/ml or g
- Concentration of radioactivity ([1]; Thymus, 5 h): 298.8 ± 61.8 ng eq/ml or g
- Concentration of radioactivity ([1]; Thymus, 12 h): 181.8 ± 19.4 ng eq/ml or g
- Concentration of radioactivity ([1]; Thymus, 24 h): 132.1 ± 3.9 ng eq/ml or g
- Concentration of radioactivity ([1]; Thymus, 72 h): 37.5 ± 8.1 (N.C.) ng eq/ml or g
- Concentration of radioactivity ([1]; Thymus, 168 h): 10.6 ± 3.3 (N.C.) ng eq/ml or g
- Concentration of radioactivity ([1]; Thyroid, 0.5 h): 826.4 ± 164.2 ng eq/ml or g
- Concentration of radioactivity ([1]; Thyroid, 5 h): 279.2 ± 83.8 ng eq/ml or g
- Concentration of radioactivity ([1]; Thyroid, 12 h): 124.3 ± 25.9 ng eq/ml or g
- Concentration of radioactivity ([1]; Thyroid, 24 h): 55.2 ± 7.4 ng eq/ml or g
- time of maximum tissue concentration ([1]; large intestine): 12 h
- radioactivity concentration as % of the maximum concentration ([1]; other tissues, 168 h): ≤ 3%
- plasma radioactivity ([1]; plasma, 72 h): undetectable
- time of maximum tissue concentration ([1]; testis, epididymis and cecum): 5 h
- radioactive component in plasma and kidney (HPLC radiochromatogram) [2]: most abundant radioactive component
- Vd [3]: 8.9 L/kg
- radioactivity in autoradiogram ([4]; kidney): relatively high level of radioactivity
- radioactivity in autoradiogram ([4]; liver): low level of radioactivity
- radioactivity in autoradiogram ([4]; other tissues examined): negligible radioactivity
Structure (SMILES): Cc1cc(N2CCN([C@@H]3CN[C@H](C(=O)N4CCSC4)C3)CC2)n(-c2ccccc2)n1 [Teneligliptin, 3‐[(2S,4S)‐4‐[4‐(3‐methyl‐1‐phenyl‐1H‐pyrazol‐5‐yl)piperazin‐1‐yl]pyrrolidin‐2‐ylcarbonyl] thiazolidine]
- exposure versus healthy subjects ([5]; patients with hepatic disorders ref 18): 1.59 fold
- exposure versus healthy subjects ([5]; patients with renal disorders ref 17): 1.68 fold
- TNF‐α expression in the aorta [6]: decreased
- endothelial dysfunction [6]: attenuated
